Experimental data published in the NIST ThermoML archive (doi:10.1016/j.tca.2004.08.013).
Numbers after ± are expanded uncertainties.

Experiment: xn = mol fraction of the nth substance listed
Conditions: 101.3 kPa, Liquid

CCCCN [1-butanamine] + ClC(Cl)(Cl)Cl
Conditions | mass density, 303.15 K [kg/m3] | mass density, 313.15 K [kg/m3] | viscosity, 303.15 K [mPa·s] | viscosity, 313.15 K [mPa·s]
x1 = 0.0099 | 1566.74 ± 1.5 | 1547.13 ± 1.5 | 0.855 ± 0.012 | 0.763 ± 0.011
x1 = 0.0183 | 1559.88 ± 1.5 | 1540.41 ± 1.5 | 0.858 ± 0.012 | 0.765 ± 0.011
x1 = 0.0287 | 1551.36 ± 1.5 | 1532.01 ± 1.4 | 0.861 ± 0.012 | 0.768 ± 0.011
x1 = 0.0386 | 1543.06 ± 1.5 | 1523.9 ± 1.4 | 0.862 ± 0.012 | 0.77 ± 0.011
x1 = 0.0477 | 1535.31 ± 1.5 | 1516.18 ± 1.4 | 0.862 ± 0.012 | 0.773 ± 0.011
x1 = 0.0581 | 1526.57 ± 1.4 | 1507.58 ± 1.4 | 0.864 ± 0.012 | 0.776 ± 0.011
x1 = 0.0675 | 1518.67 ± 1.4 | 1499.84 ± 1.4 | 0.866 ± 0.012 | 0.78 ± 0.011
x1 = 0.076 | 1511.52 ± 1.4 | 1492.72 ± 1.4 | 0.869 ± 0.012 | 0.784 ± 0.011
x1 = 0.0856 | 1503.49 ± 1.4 | 1484.69 ± 1.4 | 0.871 ± 0.012 | 0.786 ± 0.011

CCCCN [1-butanamine] + ClC(Cl)Cl
Conditions | mass density, 303.15 K [kg/m3] | mass density, 313.15 K [kg/m3] | viscosity, 303.15 K [mPa·s] | viscosity, 313.15 K [mPa·s]
x1 = 0.0091 | 1462.78 ± 1.3 | 1440.74 ± 1.3 | 0.528 ± 0.008 | 0.478 ± 0.007
x1 = 0.0196 | 1453.53 ± 1.3 | 1431.89 ± 1.3 | 0.536 ± 0.008 | 0.485 ± 0.007
x1 = 0.0289 | 1445.49 ± 1.3 | 1423.81 ± 1.2 | 0.544 ± 0.008 | 0.493 ± 0.007
x1 = 0.0409 | 1435.01 ± 1.3 | 1413.72 ± 1.2 | 0.55 ± 0.008 | 0.499 ± 0.007
x1 = 0.0483 | 1428.52 ± 1.2 | 1407.41 ± 1.2 | 0.556 ± 0.008 | 0.505 ± 0.008
x1 = 0.0578 | 1420.29 ± 1.2 | 1399.24 ± 1.2 | 0.562 ± 0.008 | 0.511 ± 0.008
x1 = 0.0676 | 1411.7 ± 1.2 | 1390.72 ± 1.2 | 0.566 ± 0.008 | 0.517 ± 0.008
x1 = 0.0775 | 1403.16 ± 1.2 | 1382.3 ± 1.1 | 0.569 ± 0.008 | 0.521 ± 0.008
x1 = 0.0848 | – | – | 0.573 ± 0.008 | 0.525 ± 0.008

CCCCNCCCC [dibutylamine] + ClC(Cl)(Cl)Cl
Conditions | mass density, 303.15 K [kg/m3] | mass density, 313.15 K [kg/m3] | viscosity, 303.15 K [mPa·s] | viscosity, 313.15 K [mPa·s]
x1 = 0.0105 | 1560.01 ± 1.5 | 1540.58 ± 1.5 | 0.852 ± 0.012 | 0.761 ± 0.011
x1 = 0.0201 | 1546.59 ± 1.5 | 1527.31 ± 1.4 | 0.851 ± 0.012 | 0.76 ± 0.011
x1 = 0.0298 | 1533.23 ± 1.5 | 1514.26 ± 1.4 | 0.85 ± 0.012 | 0.761 ± 0.011
x1 = 0.0396 | 1519.86 ± 1.4 | 1501.14 ± 1.4 | 0.85 ± 0.012 | 0.76 ± 0.011
x1 = 0.049 | 1507.12 ± 1.4 | 1488.59 ± 1.4 | 0.849 ± 0.012 | 0.759 ± 0.011
x1 = 0.0583 | 1494.77 ± 1.4 | 1476.4 ± 1.3 | 0.847 ± 0.012 | 0.757 ± 0.011
x1 = 0.0696 | 1480 ± 1.4 | 1461.9 ± 1.3 | 0.846 ± 0.012 | 0.755 ± 0.011
x1 = 0.0789 | 1467.95 ± 1.3 | 1450.12 ± 1.3 | 0.845 ± 0.012 | 0.754 ± 0.011
x1 = 0.089 | 1455.15 ± 1.3 | 1437.55 ± 1.3 | 0.845 ± 0.012 | 0.752 ± 0.01

CCCCNCCCC [dibutylamine] + ClC(Cl)Cl
Conditions | mass density, 303.15 K [kg/m3] | mass density, 313.15 K [kg/m3] | viscosity, 303.15 K [mPa·s] | viscosity, 313.15 K [mPa·s]
x1 = 0.0103 | 1455.46 ± 1.3 | 1433.69 ± 1.3 | 0.53 ± 0.008 | 0.48 ± 0.007
x1 = 0.0197 | 1441.84 ± 1.3 | 1420.36 ± 1.2 | 0.54 ± 0.008 | 0.489 ± 0.007
x1 = 0.0294 | 1428.11 ± 1.3 | 1406.9 ± 1.2 | 0.552 ± 0.008 | 0.493 ± 0.007
x1 = 0.0381 | 1415.97 ± 1.2 | 1394.99 ± 1.2 | 0.56 ± 0.008 | 0.502 ± 0.008
x1 = 0.0482 | 1401.96 ± 1.2 | 1381.38 ± 1.2 | 0.572 ± 0.008 | 0.51 ± 0.008
x1 = 0.0593 | 1387.11 ± 1.2 | 1366.85 ± 1.1 | 0.584 ± 0.008 | 0.516 ± 0.008
x1 = 0.0684 | 1375.09 ± 1.1 | 1355.19 ± 1.1 | 0.599 ± 0.009 | 0.528 ± 0.008
x1 = 0.0788 | 1361.57 ± 1.1 | 1342.11 ± 1.1 | 0.612 ± 0.009 | 0.535 ± 0.008
x1 = 0.0876 | 1350.35 ± 1.1 | 1331.13 ± 1.1 | 0.624 ± 0.009 | 0.542 ± 0.008

CCCNCCC [dipropylamine] + ClC(Cl)Cl
Conditions | mass density, 303.15 K [kg/m3] | mass density, 313.15 K [kg/m3] | viscosity, 303.15 K [mPa·s] | viscosity, 313.15 K [mPa·s]
x1 = 0.0105 | 1457.85 ± 1.3 | 1435.95 ± 1.3 | 0.525 ± 0.008 | 0.473 ± 0.007
x1 = 0.0217 | 1444.32 ± 1.3 | 1422.68 ± 1.2 | 0.531 ± 0.008 | 0.476 ± 0.007
x1 = 0.0311 | 1433.19 ± 1.3 | 1411.78 ± 1.2 | 0.535 ± 0.008 | 0.48 ± 0.007
x1 = 0.0411 | 1421.35 ± 1.2 | 1400.29 ± 1.2 | 0.539 ± 0.008 | 0.483 ± 0.007
x1 = 0.051 | 1409.85 ± 1.2 | 1389.04 ± 1.2 | 0.544 ± 0.008 | 0.486 ± 0.007
x1 = 0.0608 | 1398.52 ± 1.2 | 1378.03 ± 1.1 | 0.548 ± 0.008 | 0.488 ± 0.007
x1 = 0.0708 | 1387.22 ± 1.2 | 1366.94 ± 1.1 | 0.552 ± 0.008 | 0.492 ± 0.007
x1 = 0.0808 | 1376 ± 1.1 | 1356.01 ± 1.1 | 0.558 ± 0.008 | 0.494 ± 0.007
x1 = 0.0914 | 1364.32 ± 1.1 | 1344.6 ± 1.1 | 0.561 ± 0.008 | 0.497 ± 0.007
